Assay results taken from PubChem BioAssay (NCI).
Where “and” joins values, the source holds several entries; their conditions need not be identical. Identical values can stand only once.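 Tested at 5 concentrations; 48 h exposure; 96-well plates; endpoints linearly interpolated, else capped at highest concentration. At the GI50, growth is halved. TGI: total growth inhibition.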

What was measured:
Test in all cases: NCI anticancer screen, dose series, 48 h
786-0 renal = test system: 786-0 renal
CAKI-1 renal = test system: CAKI-1 renal
HCT-116 colon = test system: HCT-116 colon
KM12 colon = test system: KM12 colon
MDA-MB-435 = test system: MDA-MB-435
OVCAR-3 ovarian = test system: OVCAR-3 ovarian
RPMI-8226 leukemia = test system: RPMI-8226 leukemia
RXF 393 renal = test system: RXF 393 renal
SF-268 CNS = test system: SF-268 CNS
UACC-257 melanoma = test system: UACC-257 melanoma

Compound | GI50 (786-0 renal) [µM] | TGI (786-0 renal) | GI50 (CAKI-1 renal) [µM] | TGI (CAKI-1 renal) | TGI (HCT-116 colon) | GI50 (KM12 colon) [µM] | TGI (KM12 colon) | GI50 (MDA-MB-435) [µM] | TGI (MDA-MB-435) | TGI (OVCAR-3 ovarian) | TGI (RPMI-8226 leukemia) | GI50 (RXF 393 renal) [µM] | TGI (RXF 393 renal) | GI50 (SF-268 CNS) [µM] | TGI (SF-268 CNS) | GI50 (HCT-116 colon) [µM] | GI50 (OVCAR-3 ovarian) | GI50 (RPMI-8226 leukemia) [µM] | GI50 (UACC-257 melanoma) [µM] | TGI (UACC-257 melanoma)
CN(NC(=O)CC(=O)NN(C)C(=S)c1ccccc1)C(=S)c1ccccc1 | 56.3 | > 100 µM | > 55.7 | > 100 µM | > 100 µM | 65.1 | > 100 µM | > 84.4 | > 100 µM | > 100 µM | > 100 µM | > 61.1 | > 100 µM | 67.2 | > 100 µM |  |  |  |  | 
Cc1cc(C)c(O)c(CNCCCCCCNCc2cc(C)cc(C)c2O)c1 | 1.42 | 2.92 µM | 1.97 | 4.49 µM | 3.43 µM | 1.82 | 3.51 µM | 1.43 | 2.81 µM | 3.42 µM | 4.96 µM | 1.59 | 3.08 µM | 1.61 | 3.36 µM | 1.73 | 1.64 µM | 1.94 | 2.07 | 4.13 µM
CC1(C)NCCC[C@]2(C)[C@H]3C=CC4=C5C[C@](C)(CO)CC[C@]5(C)CC[C@@]4(C)[C@]3(C)CC[C@@H]12 | 2.66 | 8.59 µM | 3.7 | 13.8 µM | 10.6 µM | 6.09 | 20.3 µM | 3.76 | 14 µM | 7.06 µM | 14.9 µM | 1.84 | 4.15 µM | 3.27 | 11.6 µM | 2.73 | 2.69 µM | 3.91 | 5.24 | 17 µM
c1ccc(C(=NNc2nc3ccccc3o2)c2ccccn2)nc1 | 0.125 |  | 0.0497 | 7.87 µM and 1.34 µM |  | 0.0681 | 17.8 µM and 15 µM | 0.273 | 34.6 µM and 28.3 µM | 14.5 µM and 16.9 µM |  |  | 5.96 µM and 3.95 µM | 0.0551 | 22.9 µM and 2.38 µM | 0.0296 | < 0.0218 µM and 0.035 µM | 0.047 | 0.163 | 0.633 µM
CC1(C)COCN1COC1CCCCC1 |  | > 100 µM |  | > 100 µM | > 100 µM |  | > 100 µM |  | > 100 µM | > 100 µM | > 100 µM |  | > 100 µM |  | > 100 µM |  |  |  |  | > 100 µM
Cc1ncc([N+](=O)[O-])n1CCNS(=O)(=O)CCCn1ccnc1[N+](=O)[O-] |  | > 100 µM |  | > 100 µM | > 100 µM |  | > 100 µM |  | > 100 µM | > 100 µM | > 100 µM |  | > 100 µM |  | > 100 µM |  |  |  |  | > 100 µM
COC1/C=C\C=C(/C)C(=O)Nc2cc3nc4ccc(Br)cc4oc-3c(c2=O)CC(C)CC(OC)C(O)C(C)/C=C(\C)C1OC(N)=O (centres undefined) | 0.00576 | 12 µM |  | 16.3 µM | 4.92 µM |  | 13.4 µM | 0.0342 | 2.99 µM | 3.84 µM | 16 µM |  | 8.61 µM |  | 18.1 µM | 0.00083 |  | 0.00867 | 0.00321 | 6.93 µM
CN(C)CCCN=C(N)N |  | > 100 µM |  | > 100 µM | > 100 µM |  | > 100 µM |  | > 100 µM | > 100 µM | > 100 µM |  | > 100 µM |  | > 100 µM |  |  |  |  | > 100 µM
O=C1CCCCCCCC/C=C/CCC(c2ccco2)O1 (centres undefined) | 45.9 | > 100 µM | > 100 | > 100 µM | > 100 µM | 20.7 | > 100 µM | 99.6 | > 100 µM | > 100 µM | 37.6 µM | > 100 | > 100 µM | 44.3 | > 100 µM | 31.2 | 39.4 µM | 13.6 | > 100 | > 100 µM
Cc1ccccc1CN1CC2=C(CCN(Cc3ccccc3)C2=O)N2CCN=C12 |  | > 100 µM |  | > 100 µM | > 100 µM |  | > 100 µM |  | > 100 µM | > 87 µM | > 100 µM |  | > 100 µM |  | > 100 µM |  |  |  |  | > 100 µM
OCC(O)C(O)C(O)C1SC(c2ccccc2)=NN1c1ccccc1 (centres undefined) |  | > 100 µM |  | > 100 µM | > 100 µM |  | > 100 µM |  | > 100 µM | > 87.6 µM | > 100 µM |  | 47.9 µM |  | > 97.3 µM |  |  |  |  | > 100 µM
COc1ccc(C2=NN(C(=O)COc3ccc(Cl)cc3)C(O)(c3cc(F)c(Cl)cc3Cl)C2)cc1OC (centres undefined) | 3.31 | 8.9 µM | 1.68 | 3.6 µM | 2.58 µM | 4.88 | 16.2 µM | 1.62 | 3.48 µM | 1.46 µM | 5.78 µM | 0.474 | 1.48 µM | 3.91 | 17.4 µM | 1.23 | 0.214 µM | 1.79 | 2.74 | 8.01 µM
O=C1/C(=C/c2ccc(O)c([N+](=O)[O-])c2)CCC/C1=C\c1ccc(O)c([N+](=O)[O-])c1 | 43.7 | 25.5 µM and > 100 µM |  | 20.4 µM | 18.7 µM and > 100 µM | 1.97 | 18.4 µM and 9.42 µM | 1.53 | 21.3 µM and 5.35 µM | 17.1 µM and > 100 µM | 50 µM and 32.6 µM | 1.53 | 19.6 µM and 5.91 µM |  | 19.9 µM | 26.8 | 2.54 µM | 10 | 15.5 | 44.3 µM and 37.7 µM
c1cc2c(cc1C(N1CCNCC1)N1CCNCC1)OCO2 |  | > 100 µM |  | > 100 µM | > 100 µM |  | > 100 µM |  | > 100 µM | > 100 µM | > 100 µM |  | > 100 µM |  | > 100 µM |  |  |  |  | > 100 µM
CC([C@H]1CCC2C3CCC4C[C@@H](NC=O)CC[C@]4(C)C3CC[C@@]21C)N(C)C (some centres undefined) | 1.99 | 4.15 µM | 4.26 | 11.9 µM | 3.22 µM | 3.14 | 12.6 µM | 2.29 | 5.86 µM | 9.01 µM | 6.6 µM | 1.77 | 4.15 µM | 1.7 | 3.93 µM | 1.54 | 2.55 µM | 1.91 | 2.57 | 6.24 µM
